The results in this text go back to patent publication US8703961B2, “Thiazole derivatives for the treatment of diseases such as cancer” (Merck Patent GmbH, priority 2009, dated 2014).

Holding throughout (type): biochemical
One assay addresses T1, AKT1 (Homo sapiens, UniProt P31749).
T1 construct: purchased
The experiment in a line: filter binding kinase assay. Particulars: derived from % inhibition at 1 μM. As to the method: (§1) All kinase assays were carried out using the Multidrop 384 from Thermo-Fisher at room temperature in a total assay volume of 25.5 μl. 15 μl of an enzyme mix comprising enzyme and substrate in buffer are added to the test batch comprising either 0.5 μl of test substance, DMSO control or empty container. Test substances are pre-incubated in the presence of the enzyme and substrate for 5 minutes before the reaction is initiated by addition of 10 μl of ATP (concentration kinase-dependent of […]). The reaction is terminated by addition of 5 μl of orthophosphoric acid (50 mM). The test containers are then transferred onto P81 Unifilter plates by means of a “Packard Harvester” and dried in air. The dry Unifilter plates are sealed after the addition of MicroScint O, and the radioactivity is determined in a Packard Topcount NXT.

The target in the next assay is T2, AKT2 (Homo sapiens, UniProt P31751).
T2 construct: purchased
T2 sequence (P31751 whole entry, species assumed): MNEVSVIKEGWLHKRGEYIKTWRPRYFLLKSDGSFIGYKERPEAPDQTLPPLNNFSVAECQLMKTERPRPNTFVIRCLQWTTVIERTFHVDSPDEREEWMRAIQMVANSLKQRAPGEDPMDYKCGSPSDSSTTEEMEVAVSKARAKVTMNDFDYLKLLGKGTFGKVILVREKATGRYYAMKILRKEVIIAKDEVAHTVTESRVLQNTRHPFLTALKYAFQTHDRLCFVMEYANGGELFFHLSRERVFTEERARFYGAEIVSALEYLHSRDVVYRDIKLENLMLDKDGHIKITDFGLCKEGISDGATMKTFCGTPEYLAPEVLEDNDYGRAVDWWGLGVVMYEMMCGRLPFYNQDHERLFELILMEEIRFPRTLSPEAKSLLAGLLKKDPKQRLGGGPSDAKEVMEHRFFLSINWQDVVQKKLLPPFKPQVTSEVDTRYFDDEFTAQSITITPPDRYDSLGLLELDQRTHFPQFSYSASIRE
The experiment in a line: filter binding kinase assay. The conditions noted are these: derived from % inhibition at 1 μM. Here is the method:
as §1

The target of another assay is T3, CSNK2A1 (CK2) (Homo sapiens, UniProt P68400).
T3 construct: purchased
T3 sequence (P68400 whole entry, species assumed): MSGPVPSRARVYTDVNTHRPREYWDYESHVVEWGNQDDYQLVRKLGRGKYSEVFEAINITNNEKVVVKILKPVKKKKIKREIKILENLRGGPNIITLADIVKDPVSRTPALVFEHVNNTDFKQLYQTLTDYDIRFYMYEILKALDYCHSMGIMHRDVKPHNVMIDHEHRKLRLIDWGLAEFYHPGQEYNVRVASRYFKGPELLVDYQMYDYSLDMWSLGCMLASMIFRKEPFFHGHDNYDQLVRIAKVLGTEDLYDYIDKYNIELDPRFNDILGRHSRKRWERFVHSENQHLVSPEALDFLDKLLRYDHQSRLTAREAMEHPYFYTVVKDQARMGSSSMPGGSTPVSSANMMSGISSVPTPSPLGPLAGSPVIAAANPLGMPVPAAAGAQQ
Kind of assay: filter binding kinase assay. The conditions noted are these: for IC50: derived from % inhibition at 1 μM. As to the method: as §1

For a further assay, the target named is T4, DYRK2 (Homo sapiens, UniProt Q92630).
T4 construct: purchased
T4 sequence (Q92630 1-601): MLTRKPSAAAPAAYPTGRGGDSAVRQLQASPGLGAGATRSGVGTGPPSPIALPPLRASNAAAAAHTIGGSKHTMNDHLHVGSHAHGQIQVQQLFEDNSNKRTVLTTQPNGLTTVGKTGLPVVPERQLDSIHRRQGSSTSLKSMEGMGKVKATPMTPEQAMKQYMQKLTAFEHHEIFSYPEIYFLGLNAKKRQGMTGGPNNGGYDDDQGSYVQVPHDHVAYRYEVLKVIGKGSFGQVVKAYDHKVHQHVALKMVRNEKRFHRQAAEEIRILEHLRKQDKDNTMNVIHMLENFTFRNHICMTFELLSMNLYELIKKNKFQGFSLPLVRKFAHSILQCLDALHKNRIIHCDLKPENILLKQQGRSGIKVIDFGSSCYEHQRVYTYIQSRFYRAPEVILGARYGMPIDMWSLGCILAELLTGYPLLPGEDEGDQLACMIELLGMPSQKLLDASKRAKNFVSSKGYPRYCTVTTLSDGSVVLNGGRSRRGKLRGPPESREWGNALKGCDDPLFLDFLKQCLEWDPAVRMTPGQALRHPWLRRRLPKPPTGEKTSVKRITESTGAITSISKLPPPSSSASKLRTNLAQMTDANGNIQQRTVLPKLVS
The experiment in a line: filter binding kinase assay. Particulars: derived from % inhibition at 1 μM. Here is the method: as §1

A further assay has as its target T5, IKBKB (Homo sapiens, UniProt O14920).
T5 construct: purchased
T5 sequence (O14920 1-756): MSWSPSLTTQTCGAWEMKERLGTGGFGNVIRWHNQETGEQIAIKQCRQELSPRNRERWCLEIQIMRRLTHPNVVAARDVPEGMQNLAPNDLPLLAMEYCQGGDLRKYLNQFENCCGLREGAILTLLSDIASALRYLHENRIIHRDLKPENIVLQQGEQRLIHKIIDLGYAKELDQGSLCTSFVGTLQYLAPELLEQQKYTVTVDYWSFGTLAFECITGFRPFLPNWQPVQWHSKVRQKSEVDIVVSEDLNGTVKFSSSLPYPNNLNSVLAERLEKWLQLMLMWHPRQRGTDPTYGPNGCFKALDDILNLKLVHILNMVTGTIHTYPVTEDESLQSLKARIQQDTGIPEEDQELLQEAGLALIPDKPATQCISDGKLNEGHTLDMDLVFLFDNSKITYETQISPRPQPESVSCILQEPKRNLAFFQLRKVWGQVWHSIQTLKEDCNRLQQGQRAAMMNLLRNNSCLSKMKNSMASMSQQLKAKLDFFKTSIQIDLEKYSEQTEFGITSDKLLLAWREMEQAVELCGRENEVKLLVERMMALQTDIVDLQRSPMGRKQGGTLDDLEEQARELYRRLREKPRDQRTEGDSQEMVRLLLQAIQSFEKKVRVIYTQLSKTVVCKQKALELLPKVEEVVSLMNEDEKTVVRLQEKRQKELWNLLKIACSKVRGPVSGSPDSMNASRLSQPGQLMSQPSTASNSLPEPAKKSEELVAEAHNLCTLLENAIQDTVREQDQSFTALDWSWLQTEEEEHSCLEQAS
The experiment in a line: filter binding kinase assay. Particulars: derived from % inhibition at 1 μM. Here is the method:
as §1

In a further assay the target is T6, MAPK10 (Homo sapiens, UniProt P53779).
T6 construct: purchased
T6 sequence (P53779 whole entry, species assumed): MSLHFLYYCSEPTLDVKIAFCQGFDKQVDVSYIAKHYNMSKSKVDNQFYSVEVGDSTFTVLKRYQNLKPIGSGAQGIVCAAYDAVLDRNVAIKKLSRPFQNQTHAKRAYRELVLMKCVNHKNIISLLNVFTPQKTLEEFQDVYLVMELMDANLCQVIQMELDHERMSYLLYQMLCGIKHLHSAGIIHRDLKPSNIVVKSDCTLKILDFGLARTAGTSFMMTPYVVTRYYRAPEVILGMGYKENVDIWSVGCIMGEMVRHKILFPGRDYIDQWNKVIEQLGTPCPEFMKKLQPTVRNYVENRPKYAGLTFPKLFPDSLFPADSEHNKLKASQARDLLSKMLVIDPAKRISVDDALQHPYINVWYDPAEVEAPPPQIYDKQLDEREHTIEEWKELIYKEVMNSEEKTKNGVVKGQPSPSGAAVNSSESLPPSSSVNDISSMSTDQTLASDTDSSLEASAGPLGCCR
Kind of assay: filter binding kinase assay. The conditions noted are these: derived from % inhibition at 1 μM. As to the method: as §1

The next assay addresses T7, MAPK14 (Homo sapiens, UniProt Q16539).
T7 construct: purchased
The experiment in a line: filter binding kinase assay. The conditions noted are these: derived from % inhibition at 1 μM. Here is the method:
as §1

The target of a further assay is T8, MET (Homo sapiens, UniProt P08581).
T8 construct: 6His (N); purchased Upstate 14-526; host or cells: insect cells (Sf21; S. frugiperda), baculovirus
T8 sequence (P08581 25-1390): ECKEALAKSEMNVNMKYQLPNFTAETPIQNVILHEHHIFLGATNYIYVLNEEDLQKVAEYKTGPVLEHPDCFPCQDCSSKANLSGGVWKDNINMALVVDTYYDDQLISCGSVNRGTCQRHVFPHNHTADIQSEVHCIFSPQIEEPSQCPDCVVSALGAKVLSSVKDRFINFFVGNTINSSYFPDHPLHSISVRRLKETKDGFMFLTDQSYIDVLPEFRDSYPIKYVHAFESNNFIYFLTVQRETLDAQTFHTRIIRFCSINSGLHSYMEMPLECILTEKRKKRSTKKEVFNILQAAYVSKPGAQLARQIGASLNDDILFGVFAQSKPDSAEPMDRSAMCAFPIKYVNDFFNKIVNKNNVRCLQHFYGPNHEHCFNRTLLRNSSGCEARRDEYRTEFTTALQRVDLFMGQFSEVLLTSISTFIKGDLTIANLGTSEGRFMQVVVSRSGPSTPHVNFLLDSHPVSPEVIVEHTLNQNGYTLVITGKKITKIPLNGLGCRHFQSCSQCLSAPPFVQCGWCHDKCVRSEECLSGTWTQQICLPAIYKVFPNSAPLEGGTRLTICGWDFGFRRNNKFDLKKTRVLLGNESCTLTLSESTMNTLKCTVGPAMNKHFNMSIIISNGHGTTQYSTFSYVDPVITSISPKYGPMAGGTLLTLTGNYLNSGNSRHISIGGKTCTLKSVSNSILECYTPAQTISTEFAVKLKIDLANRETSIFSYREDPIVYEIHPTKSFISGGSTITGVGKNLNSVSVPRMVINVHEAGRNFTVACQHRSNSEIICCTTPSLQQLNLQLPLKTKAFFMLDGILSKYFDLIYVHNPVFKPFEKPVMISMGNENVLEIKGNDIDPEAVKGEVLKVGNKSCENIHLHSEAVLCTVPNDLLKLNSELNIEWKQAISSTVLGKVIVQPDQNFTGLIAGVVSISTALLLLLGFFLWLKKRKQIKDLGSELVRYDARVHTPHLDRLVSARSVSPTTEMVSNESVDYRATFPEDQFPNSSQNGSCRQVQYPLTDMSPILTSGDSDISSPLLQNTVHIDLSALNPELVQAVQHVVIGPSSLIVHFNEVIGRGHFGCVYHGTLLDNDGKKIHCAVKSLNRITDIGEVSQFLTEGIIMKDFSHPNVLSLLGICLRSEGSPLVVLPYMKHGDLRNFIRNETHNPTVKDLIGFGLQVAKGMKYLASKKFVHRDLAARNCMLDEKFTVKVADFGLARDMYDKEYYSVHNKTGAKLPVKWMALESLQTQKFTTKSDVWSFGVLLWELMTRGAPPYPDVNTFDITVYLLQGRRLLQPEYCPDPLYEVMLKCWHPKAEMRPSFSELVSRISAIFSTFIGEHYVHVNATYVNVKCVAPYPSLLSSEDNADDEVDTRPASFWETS
Kind of assay: filter binding kinase assay. The conditions noted are these: derived from % inhibition at 1 μM. As to the method: as §1

In another assay the target is T9, PIM2 (Homo sapiens, UniProt Q9P1W9).
T9 construct: purchased
T9 sequence (Q9P1W9 whole entry, species assumed): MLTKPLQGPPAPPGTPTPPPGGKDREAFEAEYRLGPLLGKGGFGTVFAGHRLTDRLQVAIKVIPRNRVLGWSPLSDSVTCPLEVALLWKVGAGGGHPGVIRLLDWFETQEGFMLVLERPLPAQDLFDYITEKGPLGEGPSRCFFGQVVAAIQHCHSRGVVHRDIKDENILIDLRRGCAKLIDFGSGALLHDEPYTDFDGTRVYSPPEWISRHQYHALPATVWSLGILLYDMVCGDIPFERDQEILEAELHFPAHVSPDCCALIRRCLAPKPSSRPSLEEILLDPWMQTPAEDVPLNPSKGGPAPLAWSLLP
Kind of assay: filter binding kinase assay. The conditions noted are these: derived from % inhibition at 1 μM. As to the method: as §1

For a further assay, the target named is T10, PRKACA (Homo sapiens, UniProt P17612).
T10 construct: purchased
Kind of assay: filter binding kinase assay. The conditions noted are these: derived from % inhibition at 1 μM. As to the method: as §1

In a further assay the target is T11, PDPK1 (Homo sapiens, UniProt O15530).
T11 construct: purchased
T11 sequence (O15530 1-556): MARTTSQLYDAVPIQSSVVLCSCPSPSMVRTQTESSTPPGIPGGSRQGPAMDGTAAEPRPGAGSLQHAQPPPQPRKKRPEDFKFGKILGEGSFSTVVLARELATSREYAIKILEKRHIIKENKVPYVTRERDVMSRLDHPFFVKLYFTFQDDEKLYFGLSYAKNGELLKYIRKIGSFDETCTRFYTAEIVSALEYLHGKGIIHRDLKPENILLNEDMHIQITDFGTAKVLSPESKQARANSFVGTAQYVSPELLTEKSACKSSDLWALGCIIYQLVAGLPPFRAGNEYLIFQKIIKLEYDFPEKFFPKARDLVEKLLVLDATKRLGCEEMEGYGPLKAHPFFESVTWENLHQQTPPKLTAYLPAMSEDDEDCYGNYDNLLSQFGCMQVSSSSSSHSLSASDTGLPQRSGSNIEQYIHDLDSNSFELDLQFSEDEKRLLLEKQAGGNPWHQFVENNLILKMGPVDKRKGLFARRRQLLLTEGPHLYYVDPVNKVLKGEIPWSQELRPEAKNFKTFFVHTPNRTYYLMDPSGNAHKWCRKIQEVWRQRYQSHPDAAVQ
The experiment in a line: filter binding kinase assay (second PDPK1 line). Particulars: derived from % inhibition at 1 μM. Here is the method:
as §1

T1 sequence (P31749 whole entry, species assumed): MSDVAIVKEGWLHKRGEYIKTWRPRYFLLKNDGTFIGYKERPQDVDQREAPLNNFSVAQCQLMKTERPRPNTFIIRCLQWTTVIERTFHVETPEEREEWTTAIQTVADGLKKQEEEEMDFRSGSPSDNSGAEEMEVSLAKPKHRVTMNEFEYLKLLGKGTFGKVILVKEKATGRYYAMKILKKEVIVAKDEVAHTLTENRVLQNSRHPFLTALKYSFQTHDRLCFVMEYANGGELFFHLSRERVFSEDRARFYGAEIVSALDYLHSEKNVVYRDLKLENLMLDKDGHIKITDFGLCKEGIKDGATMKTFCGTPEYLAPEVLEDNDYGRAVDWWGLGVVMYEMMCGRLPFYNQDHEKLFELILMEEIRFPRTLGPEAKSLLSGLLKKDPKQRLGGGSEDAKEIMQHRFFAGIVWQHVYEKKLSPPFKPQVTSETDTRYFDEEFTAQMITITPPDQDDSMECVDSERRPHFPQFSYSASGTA
T7 sequence (Q16539 whole entry, species assumed): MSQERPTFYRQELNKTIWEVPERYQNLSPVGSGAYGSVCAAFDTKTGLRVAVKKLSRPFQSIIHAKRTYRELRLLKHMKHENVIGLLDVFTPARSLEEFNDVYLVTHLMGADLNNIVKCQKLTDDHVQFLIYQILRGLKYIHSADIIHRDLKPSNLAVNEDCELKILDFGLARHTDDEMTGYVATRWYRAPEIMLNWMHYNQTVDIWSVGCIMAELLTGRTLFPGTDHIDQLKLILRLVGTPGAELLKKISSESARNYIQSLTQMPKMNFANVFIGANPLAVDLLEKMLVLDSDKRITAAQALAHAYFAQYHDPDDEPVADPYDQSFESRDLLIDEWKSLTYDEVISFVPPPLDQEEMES

With `Nc1ncsc1C#Cc1cnc2[nH]ccc2c1` [Compound A22, 5-(1H-pyrrolo[2,3-b]pyridin-5-ylethynyl)thiazol-4-ylamine], the IC50 is 10000 to 100000 nM at AKT1; more than 1000 nM at AKT2; more than 1000 nM at CSNK2A1 (CK2); more than 1000 nM on DYRK2; 10 to 100 µM on IKBKB; more than 1000 nM on MAPK10. For the same compound, the IC50 was 10 to 100 µM at MAPK14; more than 1000 nM at MET; 10 to 100 µM on PIM2; 1 to 10 µM on PRKACA; 1000 to 10000 nM on PDPK1.
`CC(C)(C)OC(=O)Nc1ncsc1C#CCN1C(=O)c2ccccc2C1=O` [Compound A26, tert-butyl{5-[3-(1,3-dioxo-1,3-dihydroisoindol-2-yl)prop-1-ynyl]-thiazol-4-yl}carbamate]: the IC50 at AKT1 is more than 1000 nM; at AKT2 it was more than 1000 nM; at CSNK2A1 (CK2) it was 10000 to 100000 nM; at DYRK2, more than 1000 nM; on IKBKB it was more than 1 µM; at MAPK10, more than 1000 nM. The concentration for half-maximal inhibition (IC50) at MAPK14 was 10 to 100 µM; on MET it was more than 1000 nM; at PIM2 it was more than 1 µM; on PRKACA it was 10 to 100 µM; on PDPK1, 10000 to 100000 nM.
Consider `Nc1ncsc1C#Cc1cccc(O)c1` [Compound A27, 3-(4-aminothiazol-5-ylethynyl)phenol], for which the IC50 is more than 1000 nM at AKT1; 1000 to 10000 nM at AKT2; more than 1000 nM on CSNK2A1 (CK2); 1000 to 10000 nM at DYRK2; 1 to 10 µM on IKBKB; 1000 to 10000 nM on MAPK10. The half-maximal inhibitory concentration (IC50) on MAPK14 was 1 to 10 µM; on MET, 10000 to 100000 nM; on PIM2 it was 1 to 10 µM; on PRKACA it was 1 to 10 µM; at PDPK1 it was more than 1000 nM.
In the case of `CC(C)(C)OC(=O)Nc1nc(-c2ccncc2)sc1C#CCN1CCOCC1` [Compound A25, tert-butyl[5-(3-morpholin-4-ylprop-1-ynyl)-2-pyridin-4-ylthiazol-4-yl]-carbamate], the half-maximal inhibitory concentration (IC50) at AKT1 was more than 1000 nM; on AKT2, 1000 to 10000 nM; at CSNK2A1 (CK2), more than 1000 nM; on DYRK2, more than 1000 nM; on IKBKB it was more than 1 µM; at MAPK10 it was more than 1000 nM. Further, the IC50 on MAPK14 is 10 to 100 µM; at MET, more than 1000 nM; on PIM2 it was 1 to 10 µM; at PRKACA, more than 1 µM; on PDPK1, more than 1000 nM.
For `c1ccc(Cc2c[nH]c3ncsc23)cc1` [Compound A7, 6-benzyl-4H-pyrrolo[2,3-d]thiazole], the IC50 was more than 1000 nM at AKT1; more than 1000 nM at AKT2; more than 1000 nM at DYRK2; 1 to 10 µM at IKBKB; more than 1000 nM at MAPK10; 1 to 10 µM at MAPK14. For the same compound, the IC50 at MET is 1000 to 10000 nM; on PIM2, more than 1 µM; at PRKACA, more than 1 µM; on PDPK1, more than 1000 nM. The remaining activity at 1 µM on CSNK2A1 (CK2) (read-out: residual kinase activity CK2) stood at 53%.
